Measurements published in ChEMBL document CHEMBL1201862, “PubChem BioAssay data set” (2004).
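Five compound concentrations were applied to cells in 96-well plates for 48 hours; endpoints were derived by simple linear interpolation of the resulting dose-response curve. The concentration for 50% growth inhibition is given as GI50.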 Activity calls are given as the source filed them. Rule as the data show it: active = GI50 up to about 1.1 µM and inactive = higher.

How the values were obtained:
Test in all cases: NCI anticancer screen, dose series, 48 h
DMS-273 = test system: DMS-273
KM-20L2 = test system: KM-20L2
XF498 = test system: XF498
RXF 631 = test system: RXF 631
DLD-1 = test system: DLD-1
HOP-18 = test system: HOP-18
M19-MEL = test system: M19-MEL
SNB-78 = test system: SNB-78

SMILES	GI50 (DMS-273)	GI50 (KM-20L2)	GI50 (XF498)	GI50 (RXF 631)	GI50 (DLD-1)	GI50 (HOP-18)	GI50 (M19-MEL)	GI50 (SNB-78)
CNC(=O)OCc1nc(SSc2nc(COC(=O)NC)c(COC(=O)NC)n2C)n(C)c1COC(=O)NC	> 100 µM (inactive)	> 100 µM (inactive)	> 100 µM (inactive)	> 100 µM (inactive)	> 100 µM (inactive)	> 100 µM (inactive)	> 100 µM (inactive)	> 100 µM (inactive)
C/C(=N\NC(N)=S)c1ccc2c(c1)OCO2		> 100 µM (inactive)	> 100 µM (inactive)	> 100 µM (inactive)	61.9 µM (inactive)	> 100 µM (inactive)	> 100 µM (inactive)	> 100 µM (inactive)
CSc1c(C)c(C)nn1-c1ccccc1	> 100 µM (inactive)	> 100 µM (inactive)	59.8 µM (inactive)	> 100 µM (inactive)	> 100 µM (inactive)	< 0.01 µM (active)		> 100 µM (inactive)
COC(=O)C1=C(C(=O)OC)C2(C3C(SC)=CC(C)(C)CC3S1)N(Cc1ccccc1)CCN2Cc1ccccc1 (centres undefined)	> 100 µM (inactive)	> 100 µM (inactive)	> 100 µM (inactive)	> 100 µM (inactive)	> 100 µM (inactive)	> 100 µM (inactive)	> 100 µM (inactive)	> 100 µM (inactive)
CCCCCCCCCCCC(=O)C1=C(O)CC(O)CC1=O (centres undefined)	84.3 µM (inactive)	> 100 µM (inactive)	> 100 µM (inactive)	> 100 µM (inactive)		> 100 µM (inactive)	> 100 µM (inactive)	> 100 µM (inactive)
O=c1cc2ccccc2nn1Cc1cccc(Cl)c1	85.9 µM (inactive)	> 100 µM (inactive)	18.8 µM (inactive)	> 100 µM (inactive)	> 100 µM (inactive)	> 100 µM (inactive)	> 100 µM (inactive)	> 100 µM (inactive)
Cc1ccc(S(=O)(=O)C(CC(=O)N2CCCC2)C(=O)c2ccccc2)cc1 (centres undefined)	97.1 µM (inactive)		> 100 µM (inactive)	> 100 µM (inactive)	71.1 µM (inactive)	> 100 µM (inactive)		54.6 µM (inactive)
CC(C)(C)c1cc2nc(c1)C(C(F)(F)F)(C(F)(F)F)OB(Br)OC2(C(F)(F)F)C(F)(F)F	< 0.01 µM (active)	< 0.01 µM (active)	1.04 µM (active)	0.0836 µM (active)	0.0248 µM (active)	< 0.01 µM (active)	0.0268 µM (active)	0.12 µM (active)
